This is an account of results in PMC7961786, “Magic Peptide: Unique Properties of the LRR11 Peptide in the Activation of Leukotriene Synthesis in Human Neutrophils” (International Journal of Molecular Sciences, 2021).

Test [1] deals with human neutrophils (PMNLs), 5-LOX product synthesis. As to the kind of experiment: 5-LOX metabolite synthesis in human neutrophils stimulated with opsonized S. typhimurium (HPLC). The format is cell-based. The method, then:
Figure 1 Effects of LRR11 and ODNs on the formation of LTB4 (A,B) and the sum of 5-LOX metabolites (ω-OH-LTB4, LTB4 and its isomers, and 5-HETE) (C) in human PMNLs. PMNLs (2 × 10^7) were incubated for 15 min at 37 °C without (black bars) or with 1 μM LRR11 (A, LRR11_first); then ODNs and LRR11 or LPS were added; various ways of adding ODN and LRR11 peptide are indicated. In control samples, Hanks’ solution was added instead of ODNs. After 20 min, 0.5 × 10^9 S. typhimurium bacterial cells were added for a further 15 min. The 5-LOX products were determined using HPLC. Values indicate mean ± SEM of five independent experiments performed in duplicate. * p < 0.05, ** p < 0.01, *** p < 0.005, compared with the control. # p < 0.05, ## p < 0.01 for pairs of data compared as indicated by two-way ANOVA followed by Tukey’s multiple comparison test.
Figure 3 Synthesis of the 5-LOX metabolites in PMNLs exposed to opsonized S. typhimurium bacteria in the presence of the RAGE antagonist FPS-ZM1. PMNLs (2 × 10^7) were incubated for 15 min at 37 °C without additives or with 0.15 µM FPS-ZM1, for the next 20 min the mixture was incubated with 1 µM ODNs without (black bars) or with 1 µM LRR11 (gray bars) before adding 5 × 10^8 S. typhimurium for 15 min. In control samples, Hanks’ solution was added instead of ODNs. The 5-LOX products were determined using HPLC. Graphical data are presented for LTB4 (A) or the sum of LTB4 and its isomers, ω-OH-LTB4 and 5-HETE, designed as Σ5LOX products (B).
Human neutrophils were isolated from freshly taken citrate-anticoagulated peripheral blood from healthy individuals using standard methods. Leukocyte-rich plasma was prepared by sedimentation of erythrocytes with 3% dextran T-500 at room temperature. For purification of granulocytes, centrifugation through Ficoll-Paque (density 1.077 g/mL) was used, followed by hypotonic lysis of the remaining erythrocytes. […] All methods were performed in accordance with the relevant instructions and regulations of the Ministry of Health of the Russian Federation and local legislation.
Bacteria (S. typhimurium IE 147 strain) obtained from the Collection of Gamaleya National Research Center of Epidemiology and Microbiology (Moscow, Russia) were grown in Luria–Bertani broth to a concentration of 1 × 10^9 colony-forming units (CFU)/mL. The bacteria were collected by centrifugation at 2000 g and opsonized immediately before the experiment for 30 min in 20% (v/v) fresh serum from the same donor whose blood was used to isolate neutrophils. Repeated centrifugation in Dulbecco’s solution was used to wash the bacteria.
The cell suspension (2 × 10^7 PMNLs in HBSS/HEPES, reaction volume of 6 mL) was cultured for 15 min in an incubator at 37 °C, 5% CO2. Then 1.0 µM ODN with or without 1.0 µM LRR11, or 2 µg/mL LPS, was added as indicated. After 20 min, the cells were stimulated with S. typhimurium (the ratio of bacteria to PMNLs was approximately 20:1) for the next 15 min [3]. The synthesis of 5-LOX metabolites was stopped by adding an equal volume of methanol at −20 °C with prostaglandin B2 as an internal standard. Samples were stored at −20 °C. The denatured cell suspension was centrifuged, and supernatants designated as water/methanol extracts.
To purify the water/methanol extracts, solid-phase extraction was used on Sep-Pak C18 cartridges (500 mg; Macherey-Nagel, Dueren, Germany), which were conditioned first with methanol, and then with water. Major 5-LOX metabolites were identified by comparing retention times with those of known compounds, as previously described.
Table S1. Effect of Chloroquine on 5-LOX product formation in PMNLs after ODN priming followed by the addition
of opsonized S. typhimurium bacteria.

Another test deals with 5′-biotinylated B-CpG. Description: TSM acoustic biosensor, peptide binding to immobilized B-CpG. The source says:
To characterize the interaction of the studied synthetic ODNs with the LRR11 peptide, we applied the thickness shear mode (TSM) acoustic biosensor method, which is based on the investigation of ultrasonic waves in piezoelectric materials such as AT-cut quartz. This approach involved immobilizing a 5′-biotinylated ODN on the surface of TSM transducer covered by NeutrAvidin and then adding the LRR11 peptide. An unrelated peptide (URP) with a random primary structure ([…]) was used as a negative control. The measurement procedure was divided into several steps, in which each immobilization stage was followed by washing with an appropriate buffer solution; when peptide solutions at different concentrations (from 1 to 100 nM) were added to the surface-modified TSM transducer, a wash with Hanks buffer was used before increasing the peptide concentration.
Based on Langmuir isotherm Equation (1), (1) Δfcc=Δfsmaxc/KD+c where Δfs(c) is the frequency change at a certain peptide concentration under equilibrium conditions, (Δfs)max is the maximum frequency change, c is the peptide concentration, and KD is the equilibrium constant of dissociation, we estimated the (Δfs)max and KD values for binding of the LRR11 peptide to C-CpG and B-CpG (Table 3).
Eight MHz AT-cut piezoelectric quartz crystal transducer was obtained from CH Instruments, Austin, TX, USA. The transducer was covered on both sides with thin layers of gold that served as electrodes (working area 0.2 cm^2). Prior ODNs immobilization, the crystal was carefully cleaned with basic Piranha solution (29% NH3, 30% H2O and H2O2 with volumetric 1:5:1 ratio, respectively) for 25 min. After the thorough cleaning, the crystal was positioned between two silicon O-rings in a flow-through cell. The analyte was injected into the cell using a Genie Plus syringe pump (Kent Scientific, Torrington, CT, USA) at a flow rate of 50 μL/min. Each solution was applied until the resonance frequency stabilized. The surface of the transducer was first washed with deionized water, and then 125 μg/mL NeutrAvidin (WWR International GmbH, Vienna, Austria) solution in water was applied. Approximately 15 min were required to stabilize the signal at a constant NeutrAvidin flow rate. This was followed by washing with water to rinse out all non-chemisorbed NeutrAvidin molecules. Immobilization of ODN on the gold surface of the crystals is accomplished using avidin–biotin interactions. A 1 μM 5′-biotinylated ODN solution was injected over the neutravidin-modified surface and subsequently the crystal was washed again with water. The system was then equilibrated using Hanks buffer solution. This buffer was suitable for studying LRR11–ODN binding. Then LRR11 was used at concentrations of 1, 5, 10, 50 and 100 nM […] in Hanks buffer. After each addition of LRR11, the sensor surface was washed with Hanks buffer and LRR11 with the higher concentration was added. All binding experiments were carried out at room temperature. Buffer and sample solutions were introduced in a flow-through format. A network analyzer 8712ES (Agilent Technologies, Santa Clara, CA, USA) was used to measure the impedance properties of the sensor and determine fS and Rm.

A further test has as its system RAGE. The note with it: ref [53]; cited from earlier work. The text has this:
Most likely, CpG-ODN can serve as a linker between various receptor molecules of neutrophils. We hypothesize that some receptors on the cell surface have a multivalent ability to bind a broad spectrum of ligands, including ODNs, and that the stimulatory action of LRR11 on the CpG-ODNs may be related to cooperation with other receptors on the neutrophil surface.

For test [2], the system named is vascular smooth muscle cells. Particulars: ref [56]; cited from earlier work. The text has this: (§1) RAGE is shown to bind molecules, known as damage-associated molecular patterns (DAMPs), released by cells that die or are under conditions of inflammation.
In test [3] the test system is human monocytes, leukotriene production. Particulars: RAGE-dependent pathway; ref [55]; cited from earlier work.
From the text: as §1

For the molecule 5′-tcgtcgttttgtcgttttgtcgtt-3′ [B-CpG], the “effect on 5-LOX activity / leukotriene synthesis” value in test [1] (ODN alone, 1 µM, 20 min, then opsonized S. typhimurium 15 min, Figure 1, five independent experiments in duplicate) was “increased leukotriene synthesis”. Besides, in test [1] (Table S1, 2×10^7 PMNLs, 15 min at 37 °C without or with 5 µM Chloroquine, then ODN, after 20 min 0.5×10^9 opsonized S. typhimurium for 15 min, mean ± SEM, three independent experiments), the “Σ 5-LOX metabolites” value is 43.9 ± 4.1 ng/107 PMNLs. The KA in the test on 5′-biotinylated B-CpG (LRR11-B-CpG complex, KA = 1/KD) was 0.018 ± 0.006 nM⁻¹. For the same molecule, the “−(Δfs)max” value with 5′-biotinylated B-CpG (LRR11 to immobilized B-CpG, Langmuir fit, Hanks buffer, room temperature, LRR11 1-100 nM, three independent experiments) was 26.6 ± 3.8 Hz. For the same molecule, the “degradation of RAGE receptor after RAGE binding” value with RAGE is “promoted rapid lysosomal degradation of the receptor”.

B1: HMGB1: High-Mobility Group Box 1 (HMGB1) protein, a DAMP (protein, UniProt P09429 1-215, looked up)
High mobility group protein B1: MGKGDPKKPRGKMSSYAFFVQTCREEHKKKHPDASVNFSEFSKKCSERWKTMSAKEKGKFEDMAKADKARYEREMKTYIPPKGETKKKFKDPNAPKRPPSAFFLFCSEYRPKIKGEHPGLSIGDVAKKLGEMWNNTAADDKQPYEKKAAKLKEKYEKDIAAYRAKGKPDAAKKGVVKAEKSKKKKEEEEDEEDEEDEEEEEDEEDEDEEEDDDDE
For B1, the “RAGE expression / LTB4 production in vascular smooth muscle cells” value in test [2] was “enhanced RAGE expression along with an increase in LTB4 production”. Moreover, the “leukotriene production in human monocytes” value in test [3] is recorded as “induce leukotriene production in human monocytes through a RAGE-dependent pathway”.
